Source: publication PMC7376718, “Flavonoids isolated from the South African weed Chromolaena odorata (Asteraceae) have pharmacological activity against uropathogens” (BMC Complementary Medicine and Therapies, 2020)
Where two headings read alike, the source gives them in different places.

Experiments:
[1] = tested on: S. aureus; experiment: Metabolic activity inhibition (INT); assay type: cell-based, Staphylococcus aureus
Procedure: The ability of the isolated compounds to inhibit the bacterial metabolic activity was tested against E. coli and S. aureus following the method used by Ramage and Lopez-Ribot with slight modification. The organisms were inoculated in a 96-well microplate following the same biofilm assay procedure described above. The final concentration of each compound in the wells was 0.016 mg/mL, 0.031 mg/mL, 0.063 mg/mL, 0.125 mg/mL and 1 mg/mL respectively. After 24 h of incubation with samples, the plates were washed three times with sterile distilled water and 50 μL of 1 mg/mL INT was added to each well and further incubated in the dark for 2 h. After incubation, absorbance was read at 490 nm using a microplate reader and the percentages of reduction of bacterial metabolic activity in the presence of different concentrations of compounds were calculated using the formula:
percentage inhibiton=mean of culture control−mean of sample/mean of culture controlx100

[2] = tested on: S. aureus (ATCC 29213) biofilm; experiment: Biofilm inhibition, crystal violet staining; assay type: cell-based, Staphylococcus aureus; settings: for Biofilm inhibition (verdict in words): planktonic (0 h) and biofilm (24 h) stages, 1 mg/mL and MIC level
Procedure: (§1) A single colony of E. coli (ATCC 25922) and S. aureus (ATCC 29213), strains were each inoculated into TSB and incubated for 24 h. The biofilm inhibition assay was carried out by adopting the method described by […] et al.. Two stages; planktonic, T0 and biofilm formation, T24 were investigated against the 24 h prepared bacterial cultures. One hundred microliters of each standardised bacterial culture (OD590 1 × 10^6 cfu/mL) was aliquoted into wells of a sterile flat bottomed 96-well microplate. Plates prepared for 24 h biofilm formation were immediately sealed with an adhesive sealer, placed in the incubator and incubated for 24 h at 37 °C. […] To the plates prepared for 0 h, the samples were added immediately. Wells containing cultures only, as well as acetone and sterile distilled water used to prepare the samples were included as controls. All plates after the addition of samples were sealed and incubated for 24 h to enable the samples to react with the biofilms. The incubated plates were washed with sterile distilled water three to four times after incubation to remove the unattached cells and were placed in the oven at 60 °C for 45 min. To all wells, 100 μL of 1% crystal violet dissolved in distilled water was added and plates were incubated for 15 min at room temperature after which the plates were washed again with sterile distilled water to remove unabsorbed stain. One hundred and twenty-five microliters of 100% ethanol was added to destain the wells. From the wells, 100 μL of the destaining solution was transferred to a new plate and semi-quantitative assessment of biofilm formation was done by measuring absorbance at 590 nm using SoftMax […] software on a microplate reader (SpectraMax M2). The mean absorbance of the samples was determined, and percentage inhibition was obtained using the equation below: percentage inhibiton=mean of culture control-mean of sample/mean of culture controlx100

[3] = tested on: Vero monkey kidney cells; experiment: in vitro; settings: Vero
Procedure: Different concentrations of the compounds ranging from 0.003 to 0.2 mg/mL were tested for cytotoxicity against three cell lines; Vero monkey kidney, C3A and Caco2. Vero cells were grown and maintained in MEM, supplemented with 0.1% gentamicin and 5% foetal calf serum, while Caco2 and C3A cells were grown and maintained in DMEM supplemented with 10% foetal calf serum, 1% non-essential amino acids and 1% penicillin-streptomycin. All cells were incubated in a 5% CO2 incubator at 37 °C. Doxorubicin chloride was used as positive control while 10% DMSO used in dissolving the test samples was used as the negative control. The 3-(4,5-dimethylthiazol)-2,5-diphenyl tetrazolium bromide (MTT) assay described by Mosmann with modification by McGaw et al. was used to determine the cytotoxicity of the test samples. The lethal concentration (LC50) value was calculated as the concentration of tested sample resulting in a 50% reduction of absorbance compared to untreated cells. Selectivity index (SI) values were calculated against the MIC using the formula: […]

[4] = tested on: E. coli (ATCC 25922) biofilm; experiment: Biofilm inhibition, crystal violet staining; assay type: cell-based, Escherichia coli; settings: planktonic (0 h) and biofilm (24 h) stages, 1 mg/mL and MIC level
Procedure: as §1, with “All plates after the addition of samples were sealed and incubated for 24 h to enable the samples to react with the biofilms. The incubated plates were washed with sterile distilled water three to four times after incubation to remove the unattached cells and were placed in the oven at 60 °C for 45 min. To all wells, 100 μL of 1% crystal violet dissolved in distilled water was added and plates were incubated for 15 min at room temperature after which the plates were washed again with sterile distilled water to remove unabsorbed stain. One hundred and twenty-five microliters of 100% ethanol was added to destain the wells.” left out

[5] = tested on: E. coli; experiment: Cell adhesion to BSA-coated polystyrene surface; assay type: cell-based, Escherichia coli; settings: 1 mg/mL, polystyrene microplate
Procedure: Anti-adhesion activity of isolated compounds was determined using the method of Namasivayam and Vivek with slight modification. To a sterile 96-well flat-bottomed polystyrene microtititre plate, 150 μL of freshly prepared 1% lyophilized powdered globular protein BSA, dissolved in water was added to all wells except for the wells allocated for media only. The plates were incubated for 30 min at 30 °C. Following incubation the wells were washed three times with PBS. To the wells, 50 μL of bacterial cultures equivalent to 1 × 10^6 cfu/mL read at 590 nm, prepared from overnight cultures were added. […] The seeded microtitre plates were incubated for 24 h at 37 °C. Non-adhered cells were washed five times with PBS at room temperature. Adhered cells were stained by the addition of 50 μL of 0.1% crystal violet and further incubation for a further 30 min at room temperature. Afterwards, wells were washed with sterile distilled water to remove excess stain followed by the addition of 10 μL of absolute ethanol to fix the adhered cells. Finally, 50 μL of 0.2% Triton X was added to the wells to lyse the cells and the absorbance was read at 570 nm using a microplate reader. Percentage adherence inhibition was calculated using the formula above.

Compound	Metabolic activity inhibition (verdict in words) [1]	Metabolic activity inhibition (verdict in words) ([1]; planktonic stage, MIC of 0.063 mg/mL)	Biofilm inhibition (verdict in words) [2]	Selectivity index (LC50/MIC) ([3]; C. neoformans 48 h)	Selectivity index (LC50/MIC) ([3]; C. neoformans 72 h)	Selectivity index (LC50/MIC) ([3]; E. coli (1))	Selectivity index (LC50/MIC) ([3]; E. coli (2))	Selectivity index (LC50/MIC) ([3]; E. coli (3))	Selectivity index (LC50/MIC) ([3]; K. pneumoniae)	Selectivity index (LC50/MIC) ([3]; S. aureus)	Biofilm inhibition (verdict in words) [4]	Adherence inhibition (verdict in words) [5]	Biofilm inhibition ([2]; at 24 h)	Selectivity index (LC50/MIC) ([3]; A. fumigatus 48 h)
COc1ccc(C2CC(=O)c3c(OC)cc(OC)cc3O2)cc1 (racemic) [Compound 2, (±)-4′,5,7-trimethoxy flavanone]	good	did not show inhibition	good and poor inhibition and good inhibitory activity	12.625	1.616	6.515	6.452	6.452	1.616	6.516	good and good activity and good inhibitory activity	weak		
COc1ccc(-c2oc3cc(OC)cc(O)c3c(=O)c2OC)cc1 [Compound 3, 5-hydroxy-3,7,4′-trimethoxyflavone]	good		good and good inhibitory activity			3.127	0.788	0.788	1.576	12.313	good and good activity and good inhibitory activity	weak	higher than 50%	6.355
